Values after ≈ are worked out from the molar mass of the structure shown. Where two headings read alike, the source gives them in different places.
Assays:
[1] = Solubility of revaprazan-containing solid dispersion in purified water; format: physicochemical; details: thermodynamic from solid, 25° C., solid dispersion containing 1 g revaprazan in 50 ml, stirred up to 6 hours, UV 270 nm
Description: Solubility of a revaprazan-containing solid dispersion was measured in purified water. A solid dispersion containing 1 g of revaprazan was added to a beaker containing 50 ml of purified water, which was then strongly stirred using a magnetic stirrer at 25° C. in a water bath for 6 hours. After 1, 2, and 6 hours, each sample was collected and filtered using a 0.45 μm filter. The filtrate was diluted with methanol having such an amount that absorbance of the filtrate is in the range from 0.2 to 1.0. Then, absorbance of the diluted filtrate was measured at 270 nm using a UV spectrophotometer (Agilent 8453, Agilent technologies, USA). From the obtained absorbance value, concentrations of revaprazan were obtained using a standard curve.
About 20 mg of revaprazan standard was dissolved in methanol until the total volume of the solution reached 10 ml. 1 ml of the resultant solution was added to a 100 ml flask and then purified water was added thereto to obtain a standard stock solution. The standard stock solution was diluted with purified water to obtain 2 μg/ml, 5 μg/ml, 8 μg/ml, and 10 μg/ml of standard solution. Each absorbance of the standard solutions was measured at an absorption maximum wavelength of 270 nm to obtain a standard curve. The standard curve was moderately linear passing through almost (0.0) (coefficient of correlation r^2>0.98).

[2] = Adhesiveness and agglutination test (Carr's index from bulk and tapped density); format: physicochemical
Description: The bulk density and tapped density of revaprazan powder and the surface-modified solid dispersions prepared according to Examples 3 and 6 were measured and their Carr's indexes were obtained in order to measure flowability thereof. About 3 g of a solid dispersion was carefully added to a plastic measuring cylinder and the volume thereof was measured to obtain the bulk density. And then, this was subjected to tapping 3,000 times using a tapped density meter to measure the volume and the tapped density was obtained. From the obtained bulk density and tapped density, Carr's index was calculated in order to evaluate flowability.

[3] = background art; cited from earlier work

SMILES: Cc1nc(Nc2ccc(F)cc2)nc(N2CCc3ccccc3C2C)c1C (stereo not shown) [Revaprazan powder, 5,6-dimethyl-2-(4-fluorophenylamino)-4-(1-methyl-1,2,3,4-tetrahydroisoquinolin-2-yl)pyrimidine]
- solubility [1]: 0.173 mg/mL (≈ 477 µM)
- Carr's index [2]: ≥ 40%
- Carr's index ([2]; from bulk density and tapped density (3,000 taps), flowability): 41.2
- water-solubility [3]: less than 0.2 mg/mL

From US8663658B2, “Revaprazan-containing solid dispersion and process for the preparation thereof” (Yuhan Corporation, priority 2006, dated 2014)
